In ChEMBL document CHEMBL1129196, “Studies on the structural feature of S'1 subsite of neprilysin (EC.3.4.24.11): Stereochemical requirement for the enzyme-inhibitor docking process” (Bioorg Med Chem Lett, 1996) one finds Ki data, which are given here for four compounds.

pKi: −log10 of the molar value. Some results are limits rather than exact numbers.

Assay [1] deals with Neprilysin (Homo sapiens, UniProt P08473). Put plainly: Compound was evaluated for inhibition of recombinant human neprilysin(NEP).
Neprilysin, sequence (P08473 whole entry): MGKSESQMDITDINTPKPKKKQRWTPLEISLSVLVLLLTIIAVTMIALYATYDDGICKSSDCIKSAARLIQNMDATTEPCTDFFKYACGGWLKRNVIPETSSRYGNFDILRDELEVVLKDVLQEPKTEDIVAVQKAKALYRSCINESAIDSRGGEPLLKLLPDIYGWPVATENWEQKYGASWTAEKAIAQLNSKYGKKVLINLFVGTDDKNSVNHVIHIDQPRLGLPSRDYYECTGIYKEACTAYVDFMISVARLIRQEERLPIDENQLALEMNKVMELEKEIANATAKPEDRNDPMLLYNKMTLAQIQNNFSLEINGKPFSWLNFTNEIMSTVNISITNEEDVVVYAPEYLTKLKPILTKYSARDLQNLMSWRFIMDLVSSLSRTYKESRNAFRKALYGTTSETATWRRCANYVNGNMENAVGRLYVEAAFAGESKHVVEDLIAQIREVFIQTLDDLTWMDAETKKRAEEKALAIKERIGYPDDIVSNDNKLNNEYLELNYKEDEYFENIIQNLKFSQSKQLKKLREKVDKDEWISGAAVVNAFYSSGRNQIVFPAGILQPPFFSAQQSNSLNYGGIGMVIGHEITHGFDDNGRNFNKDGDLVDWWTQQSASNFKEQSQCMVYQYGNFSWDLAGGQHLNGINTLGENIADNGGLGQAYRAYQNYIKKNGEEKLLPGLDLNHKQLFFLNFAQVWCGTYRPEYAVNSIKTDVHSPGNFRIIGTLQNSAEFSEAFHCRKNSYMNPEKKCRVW
Assay [2] has as its target T1, Angiotensin-converting enzyme (Rattus norvegicus, UniProt P47820).
T1 sequence (P47820 whole entry): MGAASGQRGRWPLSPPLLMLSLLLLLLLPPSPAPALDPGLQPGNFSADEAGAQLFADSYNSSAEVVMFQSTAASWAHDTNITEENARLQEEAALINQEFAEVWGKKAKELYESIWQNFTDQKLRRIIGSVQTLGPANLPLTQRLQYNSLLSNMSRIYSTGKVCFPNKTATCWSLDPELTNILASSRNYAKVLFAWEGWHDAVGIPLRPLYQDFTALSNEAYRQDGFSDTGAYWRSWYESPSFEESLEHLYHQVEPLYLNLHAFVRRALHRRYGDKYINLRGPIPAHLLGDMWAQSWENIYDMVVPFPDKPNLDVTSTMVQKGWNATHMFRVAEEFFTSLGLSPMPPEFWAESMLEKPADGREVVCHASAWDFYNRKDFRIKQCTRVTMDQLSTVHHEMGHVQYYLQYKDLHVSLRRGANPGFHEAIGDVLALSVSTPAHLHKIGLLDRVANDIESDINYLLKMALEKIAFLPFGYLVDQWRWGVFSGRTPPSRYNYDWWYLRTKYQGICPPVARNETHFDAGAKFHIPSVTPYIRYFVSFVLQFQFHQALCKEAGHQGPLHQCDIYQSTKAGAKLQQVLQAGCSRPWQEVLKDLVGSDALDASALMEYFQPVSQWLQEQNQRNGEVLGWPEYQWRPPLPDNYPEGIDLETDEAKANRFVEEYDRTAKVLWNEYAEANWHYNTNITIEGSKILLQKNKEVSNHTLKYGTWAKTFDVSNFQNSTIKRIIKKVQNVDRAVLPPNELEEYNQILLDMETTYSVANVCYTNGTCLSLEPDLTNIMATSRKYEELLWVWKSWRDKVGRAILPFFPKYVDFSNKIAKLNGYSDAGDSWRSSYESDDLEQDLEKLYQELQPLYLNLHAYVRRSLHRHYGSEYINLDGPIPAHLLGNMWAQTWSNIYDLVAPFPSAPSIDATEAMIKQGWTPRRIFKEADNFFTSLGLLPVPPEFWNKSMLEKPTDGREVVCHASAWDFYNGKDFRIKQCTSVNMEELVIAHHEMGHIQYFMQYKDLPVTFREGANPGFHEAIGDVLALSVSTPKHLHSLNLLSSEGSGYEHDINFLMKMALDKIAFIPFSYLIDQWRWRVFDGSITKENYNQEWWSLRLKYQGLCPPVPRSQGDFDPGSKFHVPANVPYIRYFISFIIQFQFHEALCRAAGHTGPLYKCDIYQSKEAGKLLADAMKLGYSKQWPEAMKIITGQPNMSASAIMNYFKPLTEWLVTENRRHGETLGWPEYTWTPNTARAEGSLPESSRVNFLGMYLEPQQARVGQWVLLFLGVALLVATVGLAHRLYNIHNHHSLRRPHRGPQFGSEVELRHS
Put plainly: Compound was measured for the inhibition of Angiotensin I converting enzyme.

In the case of `O=C(O)CNC(=O)C(CS)(Cc1ccccc1)Cc1ccccc1`, the negative logarithm of the Ki (pKi) (commonly the Ki on a negative log10 scale, so that one unit is a factor of ten) in assay [1] was less than 7.00.

With `O=C(O)CNC(=O)/C(=C/c1ccccc1)CS`, the pKi in assay [1] is 6.39.

As to `O=C(O)CNC(=O)/C(=C\c1ccccc1)CS`, the negative-log Ki (pKi) in assay [2] was 6.42; in assay [1], 8.31.

As to `O=C(O)CNC(=O)C1(CS)Cc2ccccc2C1`, the negative logarithm of the Ki (pKi) in assay [1] was 6.79.
